The record followed here is ChEMBL document CHEMBL4706510, “Structure-based design, semi-synthesis and anti-inflammatory activity of tocotrienolic amides as 5-lipoxygenase inhibitors” (Eur J Med Chem, 2020).

Active and inactive are the calls of the source. The rule behind the calls is not given here.

This assay concerns PMNL. Put plainly: Induction of 15-HETE formation in human PMNL cells by RP-HPLC analysis. The class given is functional, cell-based.
Take `COc1ccc(CNC(=O)/C(C)=C/CC/C(C)=C/CC/C(C)=C/CC[C@]2(C)CCc3c(C)c(O)c(C)c(C)c3O2)cc1`: the outcome was Active.
The entry for `C/C(=C\CC/C(C)=C/CC[C@]1(C)CCc2c(C)c(O)c(C)c(C)c2O1)CC/C=C(\C)C(=O)NCc1cccnc1` is “Active”; for `C/C(=C\CC/C(C)=C/CC[C@]1(C)CCc2c(C)c(O)cc(C)c2O1)CC/C=C(\C)C(=O)NCC1CCCCC1` it is “Active”.
Take `C/C(=C\CC/C(C)=C/CC[C@]1(C)CCc2c(C)c(O)c(C)c(C)c2O1)CC/C=C(\C)C(=O)NCC1CCCCC1`: the outcome was Active.
